Assay results published in US20230241071A1, “COMBINATION TREATMENT OF LIVER DISORDERS” (Terns Pharmaceuticals, Inc., priority 2021, published 2023).
Marks after values point to notes of the source that are not given here.

Assays:
[1] = test system: rat CDHFD+NaNO2 NASH model; experiment: Rat CDHFD+NaNO2 NASH model, liver RNAseq; assay type: in vivo; settings: 8 wk, Compound 3 3 mg/kg, Compound 1 25 mg/kg; for Down DEGs / Total DEGs / Up DEGs: liver RNAseq vs vehicle NASH control, adj. p<0.01, fold-change ≥1.5
Description: Animal handling: After arrival, the rats were left for a 2-week acclimation period, during which they were accustomed to the animal facility staff and trained on the procedure of oral gavage. After 2 weeks the animals were put on CHDFD (choline deficient high fat diet) and pre-fed for 4 weeks. Then the rats were started on treatment with test compounds, and 3× per week i.p. NaNO2 injections, while they remained on CDHFD, for an additional 8 weeks. NaNO2 was administered at 25 mg/kg i.p. dissolved in PBS 3 times a week (on Mondays, Wednesdays, and Fridays) for 8 weeks while on CDHFD.
(§1) Final Sacrifice: Half of the animals of each treatment group were terminated on day 84. The other half of the animals in each group were terminated on the following day, day 85. On the day of sacrifice the animals were fasted for 2 h and received a final treatment with the respective test substance. After the final compound treatment, the animals had no more access to food until sacrifice. At 4 h after the last administration all animals were sacrificed and livers were sampled for further analysis.
Animal handling: After arrival, the rats were left for a 2-week acclimation period, during which they were accustomed to the animal facility staff and trained on the procedure of oral gavage. After 2 weeks the animals were placed on a choline deficient high fat diet (CDHFD) and pre-fed for 4 weeks to induce steatosis and a NASH-like disease phenotype. Rats were then treated with test compounds for an additional 8 weeks while on CDHFD. Concomitant with compound treatment, rats were administered sodium nitrite (NaNO2, 25 mg/kg dissolved in PBS) by triweekly intraperitoneal (IP) injection to induce liver fibrosis.
as §1, with “2 hours” for “2 h”, “4 hours” for “4 h”
Sampling and analysis: Small liver pieces were harvested into RNAlater (Thermo Fisher Scientific Dreieich Germany) and stored at −20° C. prior to RNA sequencing (RNAseq) at MedGenome Inc. RNAseq analysis was performed on liver tissue by Illumina sequencing using standard methodologies. Briefly, RNAseq libraries (n=5 per group) were generated using Illumina Truseq stranded mRNA kits and sequencing was performed on a NovaSeq 6000 sequencer. Alignment was performed using STAR (v2.7.3a) aligner and reads mapping to ribosomal and mitochondrial genome were removed prior to alignment. Raw read counts were estimated using HTSeq (v0.11.1) and normalized using DESeq2 (v2.22.2). Differentially expressed genes (DEGs) were determined using DESeq2 (R Bioconductor package).

mouse model of NASH = experiment: Mouse NASH model (high fat diet + CCl4), Compound 3 and Compound 2 alone and combined; assay type: in vivo; settings: liver RNAseq vs vehicle NASH control, 28 d; Compound 3 3 mg/kg, Compound 2 1 mg/kg; adj. p<0.05, fold-change >1.5
Description: C57BL/6J mice were fed a high fat diet for 10 weeks to induce obesity (>38 g BW). Obese mice were injected intraperitoneally (i.p.) twice a week for four weeks with […] 25% CCl4 (formulated in olive oil) to induce fibrosis, and one group of normal BW mice were injected i.p. twice a week for four weeks with olive oil to serve as a healthy control. During the same dosing period, obese mice were fed orally once a day for 28 days with vehicle, Compound 3 or Compound 2 as single agents or in combination. On CCl4 dosing days, CCl4 was administered at 4 hours post compound or vehicle dosing. On day 27, all animals were fasted for about 16 hours before terminal euthanasia. On day 28, all animals were sacrificed and liver samples were collected for whole transcriptome analysis by RNA sequencing (RNAseq). RNAseq library (n=5 per group) preparation and sequencing was performed using Illumina standard protocols. Alignment of sequencing reads was performed using STAR aligner software and read counts were estimated using RSEM. Differentially expressed genes (compared to vehicle-treated NASH control mice) were determined using EdgeR software. Gene ontology analysis was performed using Advaita software with fold-change and adjusted p-value cutoffs of >1.5 and <0.05, respectively. Gene ontologies were derived from the Gene Ontology Consortium database (2019 Apr. 26) (Ashburner et al., Gene ontology: Tool for the unification of biology. Nature Genetics 25(1): 25-9 (2000); Gene Ontology Consortium, Creating the Gene Ontology Resource: Design and Implementation. Genome Research 11: 1425-1433 (2001)).
Gene ontology (GO) enrichment analysis was used to understand the potential biological consequences of the results in Table 22. To perform GO term enrichment analysis, the number (i.e., enrichment) of DEGs annotated for a particular term (i.e. biology process) was compared to the number of DEGs expected solely by chance. An over-representation approach was used to compute statistical significance (p-value) of observing at least the given number of DEGs; p-values were corrected for multiple comparisons.
On day 28 of treatment as described in Example 14, animals were euthanized for sample collections. Analysis of cholesterol, triglycerides, and ALT was done using a Hitachi 7180 clinical analyzer. Liver samples were processed for lipid quantification (colorimetric assays, SpectraMax 340PC384), histology, and RNA analysis. RNAseq library preparation (n=5 per group) and sequencing was performed using Illumina standard protocols. Alignment of sequencing reads was performed using STAR aligner and read counts were estimated using RSEM. Differentially expressed genes (DEGs) relative to NASH control were determined using EdgeR. Gene ontology analysis was performed using Advaita software.

Structure (SMILES): Cn1cc(C(=O)O)c2ccc(N3CCC(OCc4c(-c5c(Cl)cccc5Cl)noc4C4CC4)CC3)cc21 [Compound 3]
- Down DEGs [1]: 118
- Total DEGs [1]: 309
- Up DEGs [1]: 191
- Fabp2 differential gene expression relative to vehicle control ([1]; liver RNAseq): −1.02* log2-fold change
- Irs1 differential gene expression relative to vehicle control ([1]; liver RNAseq): −0.03 log2-fold change
- Irs2 differential gene expression relative to vehicle control ([1]; liver RNAseq): 0.27 log2-fold change
- Ldlr differential gene expression relative to vehicle control ([1]; liver RNAseq): 0.4 log2-fold change
- Ldlrap1 differential gene expression relative to vehicle control ([1]; liver RNAseq): −0.07 log2-fold change
- Lrp1 differential gene expression relative to vehicle control ([1]; liver RNAseq): 0.51 log2-fold change
- Lrp2 differential gene expression relative to vehicle control ([1]; liver RNAseq): 0.33 log2-fold change
- Ppara differential gene expression relative to vehicle control ([1]; liver RNAseq): 0.36 log2-fold change
- Ppargcla differential gene expression relative to vehicle control ([1]; liver RNAseq): 0.25 log2-fold change
- Rxra differential gene expression relative to vehicle control ([1]; liver RNAseq): 0.03 log2-fold change
- Slc27a1 differential gene expression relative to vehicle control ([1]; liver RNAseq): 0.16 log2-fold change
- Slc27a5 differential gene expression relative to vehicle control ([1]; liver RNAseq): 0.5 log2-fold change
- Vegfa differential gene expression relative to vehicle control ([1]; liver RNAseq): 0.48 log2-fold change
- Vegfc differential gene expression relative to vehicle control ([1]; liver RNAseq): −0.28 log2-fold change
- Vldlr differential gene expression relative to vehicle control ([1]; liver RNAseq): −0.58 log2-fold change
- Down DEGs (mouse model of NASH): 271
- Total DEGs (mouse model of NASH): 617
- Up DEGs (mouse model of NASH): 346

Structure (SMILES): N#Cc1nn(-c2cc(Cl)c(Oc3n[nH]c(=O)c4ccccc34)c(Cl)c2)c(=O)[nH]c1=O [Compound 2, 2-(3,5-dichloro-4-((4-oxo-3,4-dihydrophthalazin-1-yl)oxy)phenyl)-3,5-dioxo-2,3,4,5-tetrahydro-1,2,4-triazine-6-carbonitrile]
- Down DEGs (mouse model of NASH): 635
- Total DEGs (mouse model of NASH): 1113
- Up DEGs (mouse model of NASH): 478

Structure (SMILES): COC1CCN(c2ncc(OC/C(=C/F)CN)cn2)CC1 [Compound 1, (E)-3-fluoro-2-(((2-(4-methoxypiperidin-1-yl)pyrimidin-5-yl)oxy)methyl)prop-2-en-1-amine]
- Down DEGs [1]: 641
- Total DEGs [1]: 847
- Up DEGs [1]: 206
